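The compound was tested at five concentrations on cells cultured in 96-well plates, with a 48-hour exposure period. GI50 marks 50% less growth.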 The source made the active and inactive calls. Cut-off read from the data, not from the text of the source: active = GI50 up to about 1.1 µM and inactive = higher.
How the values were obtained:
Test in all cases: growth of human tumour cells (NCI), 48 h
SF-268 = tested on: SF-268
NCI/ADR-RES = tested on: NCI/ADR-RES
OVCAR-8 = tested on: OVCAR-8
HT-29 = tested on: HT-29
NCI-H226 = tested on: NCI-H226
SK-MEL-5 = tested on: SK-MEL-5
OVCAR-5 = tested on: OVCAR-5
NCI-H23 = tested on: NCI-H23
EKVX = tested on: EKVX
IGROV-1 = tested on: IGROV-1
DU-145 = tested on: DU-145
A498 = tested on: A498
A549 = tested on: A549
MDA-MB-231 = tested on: MDA-MB-231
SF-295 = tested on: SF-295
OVCAR-4 = tested on: OVCAR-4
HCT-116 = tested on: HCT-116
PC-3 = tested on: PC-3
COLO 205 = tested on: COLO 205
SNB-75 = tested on: SNB-75
MDA-N = tested on: MDA-N
UO-31 = tested on: UO-31
RXF 393 = tested on: RXF 393
HCT-15 = tested on: HCT-15
MDA-MB-435 = tested on: MDA-MB-435
M14 = tested on: M14
TK-10 = tested on: TK-10
SW-620 = tested on: SW-620
U-251 = tested on: U-251
KM12 = tested on: KM12
SF-539 = tested on: SF-539
SK-MEL-28 = tested on: SK-MEL-28
OVCAR-3 = tested on: OVCAR-3
SNB-19 = tested on: SNB-19
SN12C = tested on: SN12C
CAKI-1 = tested on: CAKI-1
HOP-92 = tested on: HOP-92
ACHN = tested on: ACHN
MOLT-4 = tested on: MOLT-4
786-0 = tested on: 786-0
UACC-62 = tested on: UACC-62
Malme-3M = tested on: Malme-3M
UACC-257 = tested on: UACC-257
HOP-62 = tested on: HOP-62
K562 = tested on: K562
CCRF-CEM = tested on: CCRF-CEM
RPMI-8226 = tested on: RPMI-8226
SK-OV-3 = tested on: SK-OV-3
HL-60 = tested on: HL-60
T47D = tested on: T47D
LOX IMVI = tested on: LOX IMVI
HCC 2998 = tested on: HCC 2998
MCF7 = tested on: MCF7
SR = tested on: SR
Hs-578T = tested on: Hs-578T
NCI-H522 = tested on: NCI-H522
NCI-H460 = tested on: NCI-H460

Measured: GI50

COc1cc2c(cc1OC)C1C[C@]3(CCN1CC2)C(=O)N(c1ccccc1)C(=O)N3C(C)=O (stereo not given in full)
> 200 µM: HCT-15
inactive: SF-268 > 200 µM | NCI/ADR-RES > 200 µM | OVCAR-8 > 200 µM | HT-29 > 200 µM | NCI-H226 > 200 µM | SK-MEL-5 > 200 µM | OVCAR-5 > 200 µM | NCI-H23 > 200 µM | EKVX > 200 µM | IGROV-1 > 200 µM | DU-145 > 200 µM | A498 > 200 µM | A549 > 200 µM | MDA-MB-231 > 200 µM | SF-295 > 200 µM | OVCAR-4 > 200 µM | HCT-116 > 200 µM | PC-3 > 200 µM | COLO 205 > 200 µM | SNB-75 > 200 µM | MDA-N > 200 µM | UO-31 > 200 µM | RXF 393 > 200 µM | MDA-MB-435 > 200 µM | M14 > 200 µM | TK-10 > 200 µM | SW-620 > 200 µM | U-251 > 200 µM | KM12 > 200 µM | SF-539 > 200 µM | SK-MEL-28 > 200 µM | OVCAR-3 > 200 µM | SNB-19 > 200 µM | SN12C > 200 µM | CAKI-1 > 200 µM | HOP-92 > 200 µM | ACHN > 200 µM

C/C(=C\CCC1=CC(=O)OC1)CCC1C2C(=O)CC(C)[C@@]3(C)CC[C@]1(C)[C@@]23C (stereo not given in full)
> 10 µM: HCT-15
inactive: SF-268 > 10 µM | MOLT-4 > 10 µM | OVCAR-8 > 10 µM | HT-29 > 10 µM | 786-0 > 10 µM | UACC-62 > 10 µM | SK-MEL-5 > 10 µM | Malme-3M > 10 µM | UACC-257 > 10 µM | HOP-62 > 10 µM | NCI-H23 > 10 µM | K562 9.44 µM | EKVX > 10 µM | IGROV-1 > 10 µM | DU-145 > 10 µM | A549 > 10 µM | MDA-MB-231 > 10 µM | CCRF-CEM > 10 µM | RPMI-8226 > 10 µM | SK-OV-3 > 10 µM | SF-295 > 10 µM | HL-60 5.85 µM | PC-3 > 10 µM | COLO 205 > 10 µM | SNB-75 > 10 µM | MDA-N > 10 µM | RXF 393 > 10 µM | T47D > 10 µM | M14 > 10 µM | LOX IMVI > 10 µM | TK-10 > 10 µM | SW-620 > 10 µM | HCC 2998 > 10 µM | KM12 > 10 µM | SK-MEL-28 > 10 µM | SN12C > 10 µM | CAKI-1 > 10 µM | MCF7 > 10 µM | SR 6.62 µM

O=c1c2ccccc2nc2n1CCc1c-2[nH]c2ccccc12 [RUTAECARPINE]
> 10 µM: HCT-15
inactive: SF-268 26.8 µM | MOLT-4 19.9 µM | NCI/ADR-RES 19.5 µM | OVCAR-8 26.2 µM | SK-MEL-5 14.7 µM | Malme-3M 28.8 µM | OVCAR-5 17.4 µM | NCI-H23 17.8 µM | K562 25.2 µM | EKVX 20.7 µM | IGROV-1 19.8 µM | DU-145 17.4 µM | RPMI-8226 15 µM | SK-OV-3 19.4 µM | SF-295 14.1 µM | HL-60 24.2 µM | HCT-116 17.5 µM | PC-3 22.2 µM | COLO 205 21.8 µM | SNB-75 18.9 µM | MDA-N 15.2 µM | UO-31 14.9 µM | RXF 393 18.8 µM | T47D 15.7 µM | M14 17.1 µM | TK-10 29.6 µM | SW-620 18.6 µM | U-251 15.3 µM | KM12 > 10 µM | SK-MEL-28 25.2 µM | SNB-19 15.8 µM | CAKI-1 9.2 µM | HOP-92 15.6 µM | SR 24.4 µM

O=C(O)CCCc1ccccc1 [SODIUM PHENYLBUTYRATE]
137 µM: HCT-15
inactive: Hs-578T 182 µM | MOLT-4 117 µM | NCI-H522 110 µM | UACC-62 172 µM | SK-MEL-5 162 µM | K562 102 µM | A498 144 µM | CCRF-CEM 63.5 µM | UO-31 189 µM | RXF 393 193 µM | HCC 2998 144 µM | KM12 126 µM | SF-539 177 µM | NCI-H460 118 µM | SN12C 102 µM | HOP-92 80.2 µM
